For 15 compounds, IC50 results are on record in PMC4069242 (Clinical and experimental allergy : journal of the British …, 2014).

Where no end group is shown, it is not given here.

As usually defined, the IC50 is the point on the concentration scale where inhibition reaches its midpoint. A high value points to lower potency.

In this assay the target is DR04:01 protein (Homo sapiens, UniProt P01903+P01911, A100K/A169T/F76Y/I96L/K127E/L162R/M171V/N62H/P40V/Q125Y/R42H/S133A/S149N/S66Y/V115G/V209L/W38E). Nature of the assay: Peptide binding assay.
AAYKIAATAANAA [Dac g 5a 167-186] displayed an IC50 of 50 nM. Next, SEFEDVIPEGWKADTSYSAK [Lol p 1 221-240]: 2920 nM; `CC[C@H](C)[C@H](NC(=O)[C@@H](NC(=O)[C@H](CC(=O)O)NC(=O)[C@H](CCC(=O)O)NC(=O)[C@H](C)NC(=O)[C@H](CCC(=O)O)NC(=O)[C@@H](N)[C@@H](C)O)C(C)C)C(=O)N1CCC[C@H]1C(=O)N[C@@H](CCC(=O)O)C(=O)NCC(=O)N[C@@H](Cc1c[nH]c2ccccc12)C(=O)N[C@@H](CCCCN)C(=O)N[C@@H](C)C(=O)N[C@@H](CC(=O)O)C(=O)N[C@H](C(=O)N[C@@H](CO)C(=O)N[C@@H](Cc1ccc(O)cc1)C(=O)N[C@@H](CCC(=O)O)C(=O)N[C@@H](CO)C(=O)N[C@@H](CCCCN)C(=O)O)[C@@H](C)O` [Phl p 1 221-240]: 2920 nM; AAFRTAATAADAA [Hor v 5a 167-186]: 970 nM. Next, EAYKFIPSLETAV [Holl 5a 199-218]: 105 nM.

Consider DSYKFIPTLVAAV [Lol p 5a 199-218], for which the IC50 came to 410 nM. Next, AAFRIAATAANAA [Holl 5a 167-186]: 116 nM.

In turn, EEPIAPYHFDLSGHAFGSMA [Lol p 1 97-116] gave a 50% inhibitory concentration (IC50) of 435 nM. Turning to EEPIAPYHFDLSGHAFGAMA [Phl p 1 97-116], the IC50 was 275 nM. The compound AAYRTAATAANAA [Lol p 5a 167-186] yielded an IC50 of 532 nM. Next, ESYKFIPTLEAAV [Dac g 5a 199-218]: 74.6 nM; ESYKFIPALEAAV [Phl p 5a 199-218]: 970 nM. Next, ESYKFIPALEAAV [Hor v 5a 199-218]: 990 nM. In the case of ETYKFIPSLEAAV [Pha a 5a 199-218], the IC50 is 51 nM.

For the compound SEVEDVIPEGWKADTSYEAK [Dac g 1 221-240], the IC50 amounted to 177 nM.
